From US20080318942A1, “Fredericamycin Derivatives” (BIOAGENCY AG, priority 2005, published 2008)

Test system: human breast cancer cell line MCF7
Assay: Efficacy of the compounds on the survival of tumor cells (cytotoxic effect, cell-titer Glo luminescence)
Type: cell-based
Details: 48 hours incubation with compound (2.4 nM to 10,000 nM), inhibition of cell survival
Protocol: The effect of the compounds on the survival of the human breast cancer cell line MCF7 was measured.
The cell line was analyzed at 37° C. [98.6° F.], 95% humidity and 5% CO2 in RPMI Medium (Cambrex).
The cells are inoculated in a 96-well microtiter plate (Costar) at an initial density of 2400 cells per well and cultivated for 24 hours.
The compounds are dissolved in DMSO, diluted with cell medium and added to the wells.
The cells are incubated for another 48 hours at a concentration of the compounds between 2.4 nM and 10,000 nM at a volume of 50 μl.
50 μl of cell-titer Glo (Promega) are added to each well and the microtiter plate is incubated for 2 minutes at room temperature on a shaker and then left standing in the dark for 10 minutes.
The luminescence is measured with a microplate reader and is proportional to the number of surviving cells. The percentage of inhibition of the cell survival is calculated in comparison to (i) without cells and with compound (100% inhibition) and (ii) with cells and without compound (no inhibition).
The concentration of the half-maximum inhibition (IC50) is determined with GraphPad Prism (GraphPad Software), whereby the controls are 0% and 100%.

Compound	IC50 [µM]	IC50 (Homo sapiens) [µM]
C/C=C/C=C/c1cc2c(Br)c3c(c(O)c2c(=O)[nH]1)[C@]1(CC3)C(=O)c2c(O)c3c(c(O)c2C1=O)C(=O)C(NC)=C(Br)C3=O [Compound 7, (8S)-4′,9,9′-trihydroxy-5,7′-dibromo-6′-methylamino-3-[(1E,3E)-penta-1,3-dienyl]-6,7-dihydrospiro[cyclopenta[g]-isoquinoline-8,2′-cyclopenta[b]-naphthalene]-1,1′-3′,5′,8′(2H)-pentone]	0.19	–
C/C=C/C=C/c1cc2c(CN(C)C)c3c(c(O)c2c(=O)[nH]1)[C@@]1(CC3)C(=O)c2c(O)c3c(c(O)c2C1=O)C(=O)C(NC)=CC3=O [Compound 7a, (8S)-4′,9,9′-trihydroxy-5-dimethylaminomethyl-6′-methylamine-3-[(1E,3E)-penta-1,3-dienyl]-6,7-dihydrospiro[cyclopenta[g]-isoquinoline-8,2′-cyclopenta[b]-naphthalene]-1,1′-3′,5′,8′(2H)-pentone]	0.66	–
C/C=C/C=C/c1cc2c(Br)c3c(c(O)c2c(=O)[nH]1)[C@]1(CC3)C(=O)c2c(O)c3c(c(O)c2C1=O)C(=O)C(N1CCOCC1)=C(Br)C3=O [Compound 9, (BS)-4′,9,9′-trihydroxy-5,7′-dibromo-6′-morpholino-3-[(1E,3E)-penta-1,3-dienyl]-6,7-dihydrospiro[cyclopenta[g]-isoquinoline-8,2′-cyclopenta[b]-naphthalene]-1,1′-3′,5′,8′(2H)-pentone]	0.67	–
CON=Cc1cc2c(Br)c3c(c(O)c2c(=O)[nH]1)[C@]1(CC3)C(=O)c2c(O)c3c(c(O)c2C1=O)C(=O)C(N(C)C)=C(Br)C3=O [Compound 13, (8S)-4′,9,9′-trihydroxy-5,7′-dibromo-6′-dimethylamino-1,1′,3′,5′,8′-pentaoxo-1,1′,2,3′,5′,6,7,8′-octahydrospiro-[cyclopenta[g]-isoquinoline-8,2′-cyclopenta[b]naphthalene]-3-carbaldehyde-O-methyloxime]	–	0.3
(8S)-4,9,9′-trihydroxy-5,7′-dibromo-6′-cyclopropylamino-1,1′,3′,5′,8′-pentaoxo-1,1′,2,3′,5′,6,7,8′-octahydrospiro-[cyclopenta[g]-isoquinoline-8,2′-cyclopenta[b]naphthalene]-3-carbaldehyde-O-methyloxime [Compound 12]	0.38	–
